Test system: serum cytokine/chemokine/growth factor/ligands of ALS patient
Test: Serum Luminex, before and after NAC treatment
Format: in vivo, human
Procedure: (§1) Serum Luminex. Serum from patients were used to determine the levels of cytokine/chemokine/growth factor/ligands secretion using multiplex luminex assay. Scatter plot was prepared using the levels of cytokine/chemokine/growth factor/ligands in serum obtained at different dates from patients as compared to controls.
Serum Luminex. Serum from patients were used to determine the levels of cytokine/chemokine/growth factor/ligands secretion using multiplex luminex assay.
as §1

[1] = H110 RS post NAC (second line, continues Table 138A)
[2] = JC sera Apr. 5, 2020 (NAC infusion)
[3] = JC sera Apr. 16, 2020 (NAC infusion)
[4] = JC sera Apr. 23, 2020 (NAC infusion)

`CC(=O)N[C@@H](CS)C(=O)O` [NAC, N-Acetyl-Cysteine] was tested, and the “IFN-g, ALS patient compared to healthy twin” value (41 plex after NAC) was 1.6, the “IL-2, ALS patient compared to healthy twin” value (41 plex after NAC) was 0.9 and the “IL-4, ALS patient compared to healthy twin” value (41 plex after NAC) was 1.1. The “IL-10, ALS patient compared to healthy twin” value (41 plex after NAC) was 0.95, the “IL-12 p70, ALS patient compared to healthy twin” value (41 plex after NAC) was 1.3 and the “IL-13, ALS patient compared to healthy twin” value (41 plex after NAC) was 0.99. The “TNF-a, ALS patient compared to healthy twin” value (41 plex after NAC) was 2.2, the Franktalkine (After NAC, Ave JC 4/5 to 6/24) was 34.8 and the GM-CSF (After NAC, Ave JC 4/5 to 6/24) was 68.8. The IL-4 (After NAC, Ave JC 4/5 to 6/24) was 12.8, the IL-23 (After NAC, Ave JC 4/5 to 6/24) was 125.6 and the ITAC (After NAC, Ave JC 4/5 to 6/24) was 13.34. For the same compound, the MIP-1b (After NAC, Ave JC 4/5 to 6/24) was 21.6, the IFNg (Ave JC 4/5 to 6/24) was 7.25 and the IL-1b (Ave JC 4/5 to 6/24) was 0.82. It also gave an IL-2 (Ave JC 4/5 to 6/24) of 1.45, an IL-6 (Ave JC 4/5 to 6/24) of 1.9 and an IL-7 (Ave JC 4/5 to 6/24) of 5.7. It also gave an IL-8 (Ave JC 4/5 to 6/24) of 4.4, an IL-10 (Ave JC 4/5 to 6/24) of 7.8 and an IL-12p70 (Ave JC 4/5 to 6/24) of 2. For the same compound, the IL-13 (Ave JC 4/5 to 6/24) was 4.32, the IL-17A (Ave JC 4/5 to 6/24) was 4 and the IL-21 (Ave JC 4/5 to 6/24) was 0.7. It also gave an MIP-1a (Ave JC 4/5 to 6/24) of 11.5, an MIP-3a (Ave JC 4/5 to 6/24) of 8.1 and a TNFa (Ave JC 4/5 to 6/24) of 8.2 pg/mL. It also gave a Franktalkine (Ave JC sera for NAC infusion) of 34.8 pg/mL, a GM-CSF (Ave JC sera for NAC infusion) of 68.8 pg/mL and an IFNg (Ave JC sera for NAC infusion) of 7.25 pg/mL. The IL-1b (Ave JC sera for NAC infusion) was 0.82 pg/mL, the IL-2 (Ave JC sera for NAC infusion) was 1.45 pg/mL and the IL-4 (Ave JC sera for NAC infusion) was 12.8 pg/mL. For the same compound, the IL-6 (Ave JC sera for NAC infusion) was 1.9 pg/mL, the IL-7 (Ave JC sera for NAC infusion) was 5.7 pg/mL and the IL-8 (Ave JC sera for NAC infusion) was 4.4 pg/mL. It also gave an IL-10 (Ave JC sera for NAC infusion) of 7.8 pg/mL, an IL-12p70 (Ave JC sera for NAC infusion) of 2 pg/mL and an IL-13 (Ave JC sera for NAC infusion) of 4.32 pg/mL. It also gave an IL-17A (Ave JC sera for NAC infusion) of 4 pg/mL, an IL-21 (Ave JC sera for NAC infusion) of 0.7 pg/mL and an IL-23 (Ave JC sera for NAC infusion) of 125.6 pg/mL. It also gave an ITAC (Ave JC sera for NAC infusion) of 13.34 pg/mL, an MIP-1a (Ave JC sera for NAC infusion) of 11.5 pg/mL and an MIP-1b (Ave JC sera for NAC infusion) of 21.6 pg/mL. The MIP-3a (Ave JC sera for NAC infusion) was 8.1 pg/mL, the TNFa (Ave JC sera for NAC infusion) was 8.2 pg/mL and the CMD [1] was 1391 pg/mL. For the same compound, the GRO [1] was 2246 pg/mL, the IFNg [1] was 20.14 pg/mL and the IL-1Ra [1] was 247.51 pg/mL. It also gave an IL-1a [1] of 43.39 pg/mL, an IL-1b [1] of 6.64 pg/mL and an IL-3 [1] of 7.88 pg/mL. For the same compound, the IL-4 [1] was 53.81 pg/mL, the IL-5 [1] was 38.12 pg/mL and the IL-6 [1] was 23.49 pg/mL. The IL-7 [1] was 21.7 pg/mL, the IL-8 [1] was 16.64 pg/mL and the IL-9 [1] was 16.88 pg/mL. The IL-10 [1] was 97.95 pg/mL, the IL-12p40 [1] was 82.26 pg/mL and the IL-12p70 [1] was 13.65 pg/mL. It also gave an IL-13 [1] of 33.66 pg/mL, an IL-15 [1] of 23.97 pg/mL and an IL-17a [1] of 12.34 pg/mL. It also gave an IP-10 [1] of 646.43 pg/mL, a L-2 [1] of 14.54 pg/mL and an MCP1 [1] of 846.7 pg/mL. The MCP3 [1] was 16.88 pg/mL, the MIP1a [1] was 17.37 pg/mL and the MIP1b [1] was 34.07 pg/mL. It also gave a PDGF-AB/BB [1] of 23823 pg/mL, a PDGFaa [1] of 8654 pg/mL and a Rantes [1] of 9480 pg/mL. The TNFa [1] was 30.58 pg/mL, the TNFb [1] was 6.89 pg/mL and the VEGF [1] was 247.51 pg/mL. The sCD40L [1] was 3545 pg/mL, the EGF (H110 RS post NAC, Aug. 8, 2019) was 21.91 pg/mL and the Eotaxin (H110 RS post NAC, Aug. 8, 2019) was 116.77 pg/mL. The FGF2 (H110 RS post NAC, Aug. 8, 2019) was 44.55 pg/mL, the FIT3L (H110 RS post NAC, Aug. 8, 2019) was 15.11 pg/mL and the Fractalkine (H110 RS post NAC, Aug. 8, 2019) was 61.83 pg/mL. The GCSF (H110 RS post NAC, Aug. 8, 2019) was 6131 pg/mL, the GMCSF (H110 RS post NAC, Aug. 8, 2019) was 26.68 pg/mL and the IFNa2 (H110 RS post NAC, Aug. 8, 2019) was 31.31 pg/mL. It also gave a TGFa (H110 RS post NAC, Aug. 8, 2019) of 22.12 pg/mL, an IL-2 (JC sera Apr. 5, 2020) of 0.14 pg/mL and an IL-4 (JC sera Apr. 5, 2020) of 18.46 pg/mL. For the same compound, the IL-5 (JC sera Apr. 5, 2020) was 2.64 pg/mL, the IL-6 (JC sera Apr. 5, 2020) was 2.74 pg/mL and the IL-7 (JC sera Apr. 5, 2020) was 5.61 pg/mL. It also gave an IL-8 (JC sera Apr. 5, 2020) of 5.32 pg/mL, an IL-21 (JC sera Apr. 5, 2020) of 0.82 pg/mL and an IL-23 (JC sera Apr. 5, 2020) of 144.83 pg/mL. For the same compound, the MIP-1a (JC sera Apr. 5, 2020) was 11.35 pg/mL, the MIP-1b (JC sera Apr. 5, 2020) was 24.47 pg/mL and the TNFa (JC sera Apr. 5, 2020) was 9.39 pg/mL. The Franktalkine [2] was 39.54 pg/mL, the GM-CSF [2] was 91.74 pg/mL and the IFNg [2] was 11.6 pg/mL. The IL-1b [2] was 0.87 pg/mL, the IL-10 [2] was 8.12 pg/mL and the IL-12p70 [2] was 2.32 pg/mL. For the same compound, the IL-13 [2] was 4.83 pg/mL, the IL-17A [2] was 6.07 pg/mL and the ITAC [2] was 18.73 pg/mL. The MIP-3a [2] was 11.35 pg/mL, the IL-2 (JC sera Apr. 16, 2020) was 0.32 pg/mL and the IL-4 (JC sera Apr. 16, 2020) was 11.22 pg/mL. It also gave an IL-5 (JC sera Apr. 16, 2020) of 2.21 pg/mL, an IL-7 (JC sera Apr. 16, 2020) of 4.9 pg/mL and an IL-8 (JC sera Apr. 16, 2020) of 3.55 pg/mL. For the same compound, the IL-21 (JC sera Apr. 16, 2020) was 0.62 pg/mL, the IL-23 (JC sera Apr. 16, 2020) was 116.26 pg/mL and the MIP-1a (JC sera Apr. 16, 2020) was 10.8 pg/mL. For the same compound, the MIP-1b (JC sera Apr. 16, 2020) was 18.56 pg/mL, the TNFa (JC sera Apr. 16, 2020) was 7.45 pg/mL and the Franktalkine [3] was 33.33 pg/mL. The GM-CSF [3] was 54.8 pg/mL, the IFNg [3] was 7.11 pg/mL and the IL-1b [3] was 0.65 pg/mL. It also gave an IL-10 [3] of 4.47 pg/mL, an IL-12p70 [3] of 2.1 pg/mL and an IL-13 [3] of 4.44 pg/mL. The IL-17A [3] was 3.15 pg/mL, the ITAC [3] was 11.26 pg/mL and the MIP-3a [3] was 5.58 pg/mL. For the same compound, the IL-2 (JC sera Apr. 23, 2020) was 5.42 pg/mL, the IL-4 (JC sera Apr. 23, 2020) was 15.94 pg/mL and the IL-5 (JC sera Apr. 23, 2020) was 2.21 pg/mL. It also gave an IL-7 (JC sera Apr. 23, 2020) of 6.39 pg/mL, an IL-8 (JC sera Apr. 23, 2020) of 3.72 pg/mL and an IL-21 (JC sera Apr. 23, 2020) of 0.68 pg/mL. It also gave an IL-23 (JC sera Apr. 23, 2020) of 132.6 pg/mL, an MIP-1a (JC sera Apr. 23, 2020) of 11.24 pg/mL and an MIP-1b (JC sera Apr. 23, 2020) of 16.32 pg/mL. The TNFa (JC sera Apr. 23, 2020) was 7.45 pg/mL, the Franktalkine [4] was 34.75 pg/mL and the GM-CSF [4] was 84.17 pg/mL. For the same compound, the IFNg [4] was 6.15 pg/mL, the IL-1b [4] was 0.77 pg/mL and the IL-10 [4] was 6 pg/mL. The IL-12p70 [4] was 2 pg/mL, the IL-13 [4] was 4.17 pg/mL and the IL-17A [4] was 2.78 pg/mL. It also gave an ITAC [4] of 10.71 pg/mL, an MIP-3a [4] of 6.78 pg/mL and an IL-2 (JC sera Apr. 30, 2020) of 0.06 pg/mL. The IL-4 (JC sera Apr. 30, 2020) was 14.43 pg/mL.

From patent US20240245770A1, “COMPOSITIONS AND METHODS FOR TREATING NEUROMUSCULAR DISORDERS” (The Regents of the University of California, priority 2019, published 2024)
